Results: patent US8546611B2 (priority 2008, dated 2013)
Like-named read-outs stand apart in the source and are kept apart here.

Key:
[1] = system: erythroid cells isolated from the bone marrow of laboratory mice males; details: feed with succinic acid 20 mg/kg body wt., not irradiated, norm 5.0±1.0
Experimental: The test for genotoxicity was performed on young laboratory mice males (18-20 g; 6 animals in each group). […] The control animals were given water.

[2] = system: Wistar rat males; details: 1.5 ml of 1% succinic acid perorally 10 min prior; for Eosinophils, 6 h after / Lymphocytes, 6 h after / Number of leukocytes in 1 μl of blood, 6 h after / Segmentated cells, 6 h after: 6 h after immobilization; for Eosinophils, before / Lymphocytes, before / Number of leukocytes in 1 μl of blood, before / Segmentated cells, before: at the moment of immobilization
Experimental: Examples, illustrating the method invented, are presented below. […] SA is tested on rats endured an immobilization stress; the parameter tested is lymphocytic composition of blood, which is determined before and after stress in a blood smear taken from the caudal vein. […] A detailed description of the testing technique is given in Example 13.
The animals were fixed while lying flat on their back, with their legs secured. […] Blood was taken from the caudal vein: 10 μl for counting blood corpuscles and 20 μl for preparing a smear with its subsequent staining by Romanovsky-Giemsa).
First group: 10 min prior immobilization, the animals were injected (perorally, with the help of a stomach pump) with 1.5 ml of 1% starch solution. […] Blood was taken from the caudal vein at the moment of immobilization and 6 hours later, and stained blood smears were prepared to calculate the leukogram.

[3] = system: patients with cardiac insufficiency; details: for patients of functional class I, day 30 / patients of functional class II, day 30 / patients of functional class III, day 30 / patients of functional class IV, day 30 / patients of functional class I, day 60 / patients of functional class II, day 60 / patients of functional class III, day 60 / patients of functional class IV, day 60 / patients of functional class I, day 90 / patients of functional class II, day 90 / patients of functional class III, day 90 / patients of functional class IV, day 90: 100 mg twice per day with standard therapy; for patients of functional class I, day 30 / patients of functional class II, day 30 / patients of functional class III, day 30 / patients of functional class IV, day 30: after 30 days; for patients of functional class I, day 60 / patients of functional class II, day 60 / patients of functional class III, day 60 / patients of functional class IV, day 60: after 60 days; for patients of functional class I, day 90 / patients of functional class II, day 90 / patients of functional class III, day 90 / patients of functional class IV, day 90: after 90 days; for patients of functional class I, day 0 / patients of functional class II, day 0 / patients of functional class III, day 0 / patients of functional class IV, day 0: 100 mg twice per day, 3 months, with standard therapy, before treatment
Experimental: The test for cardiotonic activity of product samples was performed by measuring the dynamics of alteration of the functional class of cardiac failure. The functional class can be determined quite accurately by analyzing the everyday life activities according to a specific activity scale. The authors of this technique suppose that the criteria developed by NYHA (New York Heart Association) cannot provide accurate determination of functional class, since widely used terms, such as “everyday physical activity”, “sub-everyday activity” are not specific. On the basis of multiple tests, in which patients exercised on a treadmill, the authors calculated a scale of metabolic expenses for each kind of life activity (see Goldman L., Hashimoto B., Cook F. et al., Comparative reproducibility and validity of systems for assessing cardiovascular functional class: advantages of a new specific activity scale (1981) Circulation 64 (6):1227-34). This inquiry is designed to be used by medical personnel, interviewing a patient. After calculating the sum of possible energy expenses, the functional class of the patient is determined according to the summary criteria of the specific activity scale (Table 6).
In the tests, the patient groups were formed so that the people of the same functional class were equally distributed among different groups. Severe patients (of IV functional class; those having oncological diseases or suffered myocardial infarction/stroke to the brain 60 days or less before) were not admitted to the tests. The distribution of patients among groups was governed by a random number generator. The tests were carried out by the following protocol. Each patient took 100 mg of the preparation twice per day (in the morning and after lunch) during 3 months—against the background of a standard therapy administered by a physician. […] All the samples and placebo were encoded before sending into the clinic, so none of those involved into the tests (patients, physicians, medical personnel and the manager of tests) was aware of the nature of samples.
The functional class of patients was determined several times: at the beginning of tests (before the formation of test groups) and after 30, 60 and 90 days of treatment with the test samples. The estimation was performed on the basis of the activity scale (Table 7).

[4] = system: white rat females; details: female, in vivo, 5000 mg/kg; for Total died: 14 days
[5] = system: erythroid cells isolated from the bone marrow of gamma-irradiated laboratory mice males; assay: Radioprotective properties (micronucleus test after gamma irradiation); details: mice irradiated with gamma rays 1.3 Gy, then fed 48 h succinic acid 20 mg/kg body wt.; critical value 16±2

Structure (SMILES) | Number of micronuclei per 2000 cells (genotoxicity) [1] | patients of functional class I, day 30 [3] | patients of functional class II, day 30 [3] | patients of functional class III, day 30 [3] | patients of functional class IV, day 30 [3] | patients of functional class I, day 60 [3] | patients of functional class II, day 60 [3] | patients of functional class III, day 60 [3] | patients of functional class IV, day 60 [3] | patients of functional class I, day 90 [3] | patients of functional class II, day 90 [3] | patients of functional class III, day 90 [3] | patients of functional class IV, day 90 [3] | patients of functional class I, day 0 [3] | patients of functional class II, day 0 [3] | patients of functional class III, day 0 [3] | patients of functional class IV, day 0 [3] | died, 14 day [4] | Total died [4] | Number of micronuclei per 2000 cells (radioprotective properties) [5] | also measured
O=C(O)CCC(=O)O [Example 6, succinic acid] | 4.5 ± 1.0 | 10 | 6 | 4 | 0 | 11 | 6 | 3 | 0 | 14 | 5 | 1 | 0 | 8 | 7 | 5 | 0 | 2 | 3 | 12.5 ± 1.0 | Eosinophils, 6 h after ([2]; listed as Ex. 6): 1.0 ± 2%; Lymphocytes, 6 h after ([2]; listed as Ex. 6): 74 ± 6%; Number of leukocytes in 1 μl of blood, 6 h after ([2]; listed as Ex. 6): 7000; Segmentated cells, 6 h after ([2]; listed as Ex. 6): 25 ± 3%; Eosinophils, before ([2]; listed as Ex. 6): 2 ± 2%; Lymphocytes, before ([2]; listed as Ex. 6): 77 ± 5%; Number of leukocytes in 1 μl of blood, before ([2]; listed as Ex. 6): 5800; Segmentated cells, before ([2]; listed as Ex. 6): 21 ± 3%; died, 11 day ([4]; 11 day): 1
O=C(O)CCC(=O)O [Example 10, succinic acid] | 5.0 ± 1.0 | 10 | 5 | 4 | 0 | 10 | 7 | 3 | 0 | 14 | 5 | 1 | 0 | 8 | 7 | 5 | 0 | 2 | 3 | 12.5 ± 1.0 | Eosinophils, 6 h after ([2]; listed as Ex. 10): 1.5 ± 2%; Lymphocytes, 6 h after ([2]; listed as Ex. 10): 74 ± 4%; Number of leukocytes in 1 μl of blood, 6 h after ([2]; listed as Ex. 10): 7000; Segmentated cells, 6 h after ([2]; listed as Ex. 10): 24 ± 4%; Eosinophils, before ([2]; listed as Ex. 10): 2 ± 2%; Lymphocytes, before ([2]; listed as Ex. 10): 76 ± 5%; Number of leukocytes in 1 μl of blood, before ([2]; listed as Ex. 10): 5800; Segmentated cells, before ([2]; listed as Ex. 10): 22 ± 3%; died, 13 day [4]: 1
O=C(O)CCC(=O)O [Example 4, succinic acid] | 5.5 ± 1.0 | 8 | 7 | 5 | 0 | 9 | 9 | 3 | 0 | 13 | 6 | 1 | 0 | 8 | 7 | 5 | 0 | 1 | 3 | 12.5 ± 2.0 | Eosinophils, 6 h after ([2]; listed as Ex. 4): 1.5 ± 6%; Lymphocytes, 6 h after ([2]; listed as Ex. 4): 74 ± 8%; Number of leukocytes in 1 μl of blood, 6 h after ([2]; listed as Ex. 4): 7100; Segmentated cells, 6 h after ([2]; listed as Ex. 4): 24 ± 3%; Eosinophils, before ([2]; listed as Ex. 4): 2 ± 4%; Lymphocytes, before ([2]; listed as Ex. 4): 77 ± 4%; Number of leukocytes in 1 μl of blood, before ([2]; listed as Ex. 4): 5900; Segmentated cells, before ([2]; listed as Ex. 4): 21 ± 2%; died, 12 day ([4]; 12 day): 1; died, 13 day [4]: 1
O=C(O)CCC(=O)O [Example 9, succinic acid] | 5.0 ± 1.0 | 10 | 6 | 4 | 0 | 11 | 6 | 3 | 0 | 14 | 5 | 1 | 0 | 8 | 7 | 5 | 0 | 1 | 3 | 11.0 ± 1.6 | Eosinophils, 6 h after ([2]; listed as Ex. 9): 1.5 ± 2%; Lymphocytes, 6 h after ([2]; listed as Ex. 9): 74 ± 6%; Number of leukocytes in 1 μl of blood, 6 h after ([2]; listed as Ex. 9): 7000; Segmentated cells, 6 h after ([2]; listed as Ex. 9): 25 ± 6%; Eosinophils, before ([2]; listed as Ex. 9): 2 ± 4%; Lymphocytes, before ([2]; listed as Ex. 9): 76 ± 6%; Number of leukocytes in 1 μl of blood, before ([2]; listed as Ex. 9): 5800; Segmentated cells, before ([2]; listed as Ex. 9): 22 ± 3%; died, 13 day [4]: 2
